Results on 2 molecules are retold here after patent publication US20240041898A9, “NEUROSTEROIDS AND ENANTIOMERS THEREOF FOR THE PREVENTION AND TREATMENT OF NEURODEGENERATIVE CONDITIONS” (priority 2019, published 2024).

The test system of one assay is p62. The assay can be described thus: Ex vivo pressure-loaded retinas, Western blot of p62. It counts as cell-based, rat. The settings on record: ex vivo, 75 mmHg; for p62 expression (FIG. 2S), individual experiments 1-5: 1 μM, relative units, 10 mmHg = 1.00. As to the method:
Rat ex vivo Eyecup Preparation—Rat ex vivo eyecups were prepared from 28-32 day old male Sprague-Dawley rats (Charles River Laboratories International Inc., Wilmington, MA). The anterior half of the enucleated eyes was carefully removed to make eyecup preparations. Eyecups were placed at the bottom of a 100 ml glass beaker filled with aCSF (artificial cerebrospinal fluid) containing (in mM): 124 NaCl, 5 KCl, 2 MgSO4, 2 CaCl2, 1.25 NaH2PO4, 22 NaHCO3, and 10 glucose, and incubated at 30° C. for 24 hours using a closed pressure-loading system (FIG. 1C). pH was maintained at 7.35 to 7.40. In the closed-pressure system, a glass beaker with the eyecup was placed at the bottom of an acrylic pressure chamber (2,000 ml volume). A 95% O2-5% CO2 gas mixture was delivered through disposable plastic tubing with an infusion valve and a control dial on the lid of the pressure chamber and an air filter (Cat #SLGP033RS, Merck Millipore, Billerica, MA). The plastic tubing delivering the gas terminated 1 cm above the bottom of the beaker.
Acutely prepared eyecups were incubated in gassed aCSF for at least 1 h at 30° C. before pressure loading. In some experiments, AlloP (1 μM), ent-AlloP (1 μM), and 3-MA (10 mM) were dissolved in aCSF at the time of experiment and administered by bath perfusion. Eyecup preparations were treated with these drugs for 1 h at 30° C. before pressure loading. For pressure loading, the 95% O2-5% CO2 gas mixture was infused until the pressure reading given by a manometer reached the appropriate level. The pressure was then locked by adjusting the control dial of the effusion valve, and monitored continuously for 24 h at 30° C.
Western Blot Analysis—At the end of each experiment, the posterior segments of the eye were placed on a flat cutting surface and immersed in ice-cold aCSF. With a surgical blade, the retina was carefully and gently detached from the sclera with a fine forceps. The isolated retinas were frozen at −80° C. Retinas were then homogenized in lysis buffer solution (CelLytic MT; Sigma-Aldrich, Inc.) with protease inhibitor cocktail (Sigma-Aldrich, Inc.), prepared according to the manufacturer's instructions. The tissue extracts were ultrasonicated and clarified by centrifugation at 12,000 g for 20 minutes at 4° C. The protein concentrations in supernatants were assayed (Quant-iT assay kit; Invitrogen Corp., Carlsbad, CA). Twenty micrograms of retinal extract were subjected to SDS polyacrylamide gel electrophoretic analysis. The proteins were then transferred to a PVDF. Immunoblots by polyclonal rabbit anti-LC3B antibody (MBL Life Science) or anti-SQSTMl/p62 mouse monoclonal antibody (Abcam) were visualized using WesternBreeze Chemiluminescent Immunodetection system (Invitrogen) with the exposure time to autoradiograph film (MXJB Plus; Kodak, Rochester, NY) adjusted to avoid over- or undersaturation. Precision Plus Protein™ Western Standards (Bio-Rad, Hercules, CA) followed by Precision Protein™ strep Tactin-AP conjugate (Bio-Rad) was used for a molecular marker of LC3. […]
The density of Western blot bands was quantified using Image-Pro Plus software. Quantification was adjusted to protein expression at 10 mmHg after normalization to the β-actin band at each pressure, and the relative gray-scale value was calculated by densitometric analysis of the obtained bands. […] Differences in expression levels were evaluated using Wilcoxon Rank-Sum Test, Tukey's or Dunnett's multiple comparison test. […]

The next assay deals with GABAA receptors. Conditions: cited from earlier work.

Where “and” joins values, the source holds several entries; their conditions need not be identical. Equal values may be shown once.

Regarding `CC(=O)[C@H]1CC[C@H]2[C@@H]3CC[C@H]4C[C@H](O)CC[C@]4(C)[C@H]3CC[C@]12C` [AlloP, allopregnanolone], in the assay on p62 (single values), the “p62 expression (FIG. 2S), individual experiments 1-5” value is 1.96 and 2.18 and 2.05 and 0.84 and 2.81. Also, the “action on GABAA receptors” value with GABAA receptors is given as “strong enhancer”.

As to `CC(=O)[C@@H]1CC[C@@H]2[C@H]3CC[C@@H]4C[C@@H](O)CC[C@@]4(C)[C@@H]3CC[C@]21C` [ent-AlloP, ent-allopregnanolone], in the assay with p62 (1 μM ent-AlloP, 10 mM 3-MA, relative, ent-AlloP = 1.00, Average of 4), the “p62 expression after 3-MA treatment (FIG. 3H), Average” value was determined as 1.00. The “p62 expression after 3-MA treatment (FIG. 3H), individual experiments 1-4” value in the assay with p62 (1 μM ent-AlloP, 10 mM 3-MA, relative, ent-AlloP = 1.00, single values) is 1.00. Moreover, the “p62 expression (FIG. 2S), individual experiments 1-5” value in the assay with p62 (single values) was 0.92 and 0.40 and 1.00 and 0.28 and 1.08. For the same molecule, the “action on GABAA receptors” value with GABAA receptors is on record as “weak actions”.
